Source: the supplement of paper PMC11451515

Test system: NOMO1
Test: cell viability relative to DMSO control; higher = less cytotoxic
Details: 48 h
How it was run: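 Viability values are per-plate percentages of DMSO wells, with background from cell-free wells. Library compounds in DMSO were pin-dosed, in an 11-point threefold series from 47 μM to 0.79 nM, onto NOMO1 or SEM (500 cells/well) or P12-Ichikawa (1000 cells/well) leukemia cells in 1536-well plates (5 μl). Those cells had been adapted for at least four passages in each medium, and CellTiter-Glo One luminescence was read after 48 h at 37°C.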

[1] = HPLM + 10% dialyzed FBS, 0.000781 µM
[2] = HPLM + 10% dialyzed FBS, 0.00234 µM
[3] = HPLM + 10% dialyzed FBS, 0.00702 µM
[4] = HPLM + 10% dialyzed FBS, 0.0211 µM
[5] = HPLM + 10% dialyzed FBS, 0.0632 µM
[6] = HPLM + 10% dialyzed FBS, 0.19 µM
[7] = HPLM + 10% dialyzed FBS, 0.569 µM
[8] = HPLM + 10% dialyzed FBS, 1.71 µM
[9] = HPLM + 10% dialyzed FBS, 5.12 µM
[10] = HPLM + 10% dialyzed FBS, 15.4 µM
[11] = HPLM + 10% dialyzed FBS, 46.1 µM
[12] = RPMI 5 mM glucose + 10% FBS, 0.000781 µM
[13] = RPMI 5 mM glucose + 10% FBS, 0.00234 µM
[14] = RPMI 5 mM glucose + 10% FBS, 0.00702 µM
[15] = RPMI 5 mM glucose + 10% FBS, 0.0211 µM
[16] = RPMI 5 mM glucose + 10% FBS, 0.0632 µM
[17] = RPMI 5 mM glucose + 10% FBS, 0.19 µM
[18] = RPMI 5 mM glucose + 10% FBS, 0.569 µM
[19] = RPMI 5 mM glucose + 10% FBS, 1.71 µM
[20] = RPMI 5 mM glucose + 10% FBS, 5.12 µM
[21] = RPMI 5 mM glucose + 10% FBS, 15.4 µM
[22] = RPMI 5 mM glucose + 10% FBS, 46.1 µM
[23] = RPMI 5 mM glucose + 10% dialyzed FBS, 0.000781 µM
[24] = RPMI 5 mM glucose + 10% dialyzed FBS, 0.00234 µM
[25] = RPMI 5 mM glucose + 10% dialyzed FBS, 0.00702 µM
[26] = RPMI 5 mM glucose + 10% dialyzed FBS, 0.0211 µM
[27] = RPMI 5 mM glucose + 10% dialyzed FBS, 0.0632 µM
[28] = RPMI 5 mM glucose + 10% dialyzed FBS, 0.19 µM
[29] = RPMI 5 mM glucose + 10% dialyzed FBS, 0.569 µM
[30] = RPMI 5 mM glucose + 10% dialyzed FBS, 1.71 µM
[31] = RPMI 5 mM glucose + 10% dialyzed FBS, 5.12 µM
[32] = RPMI 5 mM glucose + 10% dialyzed FBS, 15.4 µM
[33] = RPMI 5 mM glucose + 10% dialyzed FBS, 46.1 µM

Row | SMILES | cell viability [1] | cell viability [2] | cell viability [3] | cell viability [4] | cell viability [5] | cell viability [6] | cell viability [7] | cell viability [8] | cell viability [9] | cell viability [10] | cell viability [11] | cell viability [12] | cell viability [13] | cell viability [14] | cell viability [15] | cell viability [16] | cell viability [17] | cell viability [18] | cell viability [19] | cell viability [20] | cell viability [21] | cell viability [22] | cell viability [23] | cell viability [24] | cell viability [25] | cell viability [26] | cell viability [27] | cell viability [28] | cell viability [29] | cell viability [30] | cell viability [31] | cell viability [32] | cell viability [33]
1 | COc1ccc(C(C)=O)c(O)c1 | 115% | 114% | 109% | 121% | 111% | 93.7% | 98% | 45.9% | 41.4% | 23.9% | 26.2% | 116% | 111% | 119% | 118% | 116% | 127% | 112% | 56.6% | 64.8% | 20.1% | 22.6% | 111% | 115% | 105% | 105% | 124% | 129% | 123% | 75.6% | 59.9% | 25.7% | 24.2%
2 | CNC(=O)c1ccc(N2C(=S)N(c3ccc(C#N)c(C(F)(F)F)c3)C(=O)C23CCC3)cc1F | 90.5% | 90.2% | 91.7% | 33.3% | 95.1% | 105% | 103% | 107% | 92.6% | 93.2% | 111% | 80.5% | 88.3% | 83.6% | 18.9% | 98.9% | 88% | 92% | 86.6% | 96% | 88.4% | 99.1% | 84.9% | 93.1% | 108% | 34.6% | 100% | 90.6% | 95.2% | 93.1% | 95.6% | 91.7% | 103%
3 | NC(=O)c1ccc(I)c([N+](=O)[O-])c1 | 130% | 123% | 110% | 138% | 126% | 140% | 128% | 117% | 126% | 124% | 117% | 125% | 125% | 120% | 131% | 119% | 125% | 126% | 140% | 133% | 120% | 118% | 123% | 120% | 137% | 143% | 148% | 132% | 148% | 139% | 143% | 158% | 130%
4 | N#Cc1c(NC(=O)c2cccc3ccccc23)sc2c1CCCC2 |  |  |  |  |  |  |  |  |  |  |  | 120% | 142% | 118% | 128% | 139% | 134% | 127% | 25.4% | 26.1% | 21.7% | 21% |  |  |  |  |  |  |  |  |  |  | 
5 | C[C@]12CCC(=O)C=C1CC[C@@H]1[C@@H]2CC[C@@]2(C)[C@H]1CC[C@]2(C)O | 109% | 116% | 115% | 85.3% | 110% | 102% | 108% | 102% | 99.1% | 96.5% | 90.2% | 85.1% | 89.6% | 88.9% | 97.2% | 86% | 96.5% | 91.1% | 86.8% | 98.7% | 87.7% | 83.4% | 107% | 93.8% | 96.1% | 86.5% | 105% | 93.1% | 91.6% | 98.1% | 90.9% | 91.6% | 90.7%
6 | Cc1cn([C@@H]2O[C@H](CO)[C@@H](O)[C@@H]2F)c(=O)[nH]c1=O |  |  |  |  |  |  |  |  |  |  |  | 93.5% | 108% | 102% | 117% | 114% | 121% | 110% | 115% | 109% | 113% | 29% | 86.1% | 120% | 114% | 108% | 123% | 119% | 127% | 120% | 103% | 126% | 22.4%
7 | CCOC(=O)C/1=C(O)/C(=O)N(CC2=CC=CC=C2)C1 | 95.4% | 113% | 129% | 124% | 110% | 106% | 103% | 122% | 114% | 103% | 95.6% | 102% | 113% | 98.3% | 99.2% | 98.6% | 99.5% | 111% | 95.9% | 95.7% | 95.7% | 103% | 102% | 118% | 110% | 109% | 110% | 115% | 105% | 111% | 91.2% | 103% | 95.1%
8 | O=C(Nc1c(Cl)cncc1Cl)c1ccc(OC(F)F)c(OCC2CC2)c1 | 108% | 126% | 111% | 97.5% | 123% | 105% | 130% | 124% | 109% | 98.5% | 100% | 94.4% | 102% | 101% | 99.1% | 108% | 106% | 120% | 107% | 102% | 103% | 99.7% | 94.5% | 106% | 112% | 101% | 107% | 112% | 106% | 114% | 97.8% | 99.6% | 102%
9 | CC(C)C[C@H](NC(=O)[C@H](CCc1ccccc1)NC(=O)CN1CCOCC1)C(=O)N[C@@H](Cc1ccccc1)C(=O)N[C@@H](CC(C)C)C(=O)[C@@]1(C)CO1 | 94.7% | 95.3% | 103% | 99.4% | 7.57% | 8.63% | 5.74% | 4.23% | 1.47% | 0.357% | 0.4% | 77.8% | 88.9% | 90% | 83.9% | 6.13% | 6.37% | 4.68% | 3.7% | 2.13% | -0.195% | -0.384% | 90.9% | 93.3% | 98.5% | 92% | 8.53% | 8.08% | 5.45% | 3.98% | 2.7% | 0.526% | -0.204%
10 | S=P(N1CC1)(N1CC1)N1CC1 | 107% | 105% | 99% | 104% | 98.5% | 98.6% | 110% | 97.3% | 92.4% | 104% | 62.6% | 92.8% | 102% | 95.7% | 96.4% | 103% | 95.7% | 92.7% | 95.5% | 101% | 90.2% | 89.8% | 101% | 105% | 95.4% | 91.4% | 104% | 99.6% | 116% | 98.7% | 95.5% | 98.3% | 92.4%
11 | CN[C@@H]1[C@H](O)[C@H](NC)[C@H]2O[C@@]3(O)C(=O)C[C@@H](C)O[C@H]3O[C@@H]2[C@H]1O | 123% | 135% | 117% | 113% | 124% | 127% | 128% | 121% | 103% | 87.4% | 42.6% |  |  |  |  |  |  |  |  |  |  |  | 110% | 115% | 115% | 119% | 122% | 121% | 113% | 114% | 119% | 103% | 91.4%
12 | COc1cc2ncnc(Nc3cc(Br)c(O)c(Br)c3)c2cc1OC | 95.8% | 91% | 114% | 112% | 107% | 102% | 120% | 119% | 97.2% | 111% | 85.6% | 99.5% | 115% | 99.8% | 103% | 118% | 113% | 109% | 109% | 107% | 110% | 106% | 92.4% | 99.7% | 99.3% | 107% | 105% | 96.8% | 108% | 112% | 103% | 104% | 98.2%
13 | CNC[C@H](O)c1ccc(O)c(O)c1 | 112% | 95.6% | 104% | 104% | 96.9% | 102% | 88.1% | 89.2% | 86.3% | 77.1% | 73% | 84.7% | 89.8% | 83% | 87.6% | 84.6% | 80.5% | 90.7% | 89.9% | 80% | 76.7% | 77.9% | 84.2% | 90.4% | 93.8% | 85.6% | 95.9% | 91.3% | 84.2% | 75.5% | 84.6% | 76.5% | 77.7%
14 | O=C(O)C1=NC(C(=O)O)CC(/C=C/N2c3cc(O)c(OC4OC(CO)C(O)C(O)C4O)cc3CC2C(=O)O)=C1 (stereo not drawn) | 111% | 111% | 115% | 103% | 117% | 106% | 99.1% | 109% | 98.7% | 107% | 109% | 86.4% | 86.7% | 94.2% | 99.4% | 119% | 108% | 98.4% | 93.5% | 94% | 90.6% | 104% | 104% | 101% | 101% | 113% | 104% | 101% | 94.2% | 98.2% | 92.4% | 104% | 117%
